Assays:
[1] = system: experimental autoimmune encephalomyelitis (EAE); details: Nonpatent Documents 2 to 4, Patent Document 2; cited from earlier work
[2] = system: collagen induced arthritis (CIA); details: Nonpatent Documents 2 to 4, Patent Document 2; cited from earlier work
mononuclear cells = assay: Effect on liver mononuclear cells of Jα18 gene-deficient mice with no NKT cells; assay type: cell-based
Experimental: (§1) Mononuclear cells were separated from the livers of C57BL/6J mice (8 weeks old, female) and incubated with the compound for 48 hours. […] The reaction by α-GC and slight intake of tritium and the slight amount of cytokine production observed for the compound at 30 ng/ml were not seen in Jα18 gene-deficient mice with no NKT cells, and, therefore, these reactions were confirmed to be NKT cell-dependent reactions (see FIG. 4).

NKT cells = assay: Effect of compound on NKT cells: liver mononuclear cells incubated with compound for 48 hours; assay type: cell-based, C57BL/6J mice; details: 48 hours incubation; FIG. 4
Experimental: as §1

| SMILES | effectiveness in EAE, animal model of multiple sclerosis [1] | effectiveness in CIA, animal model of rheumatoid arthritis [2] | reaction (tritium intake, cytokine production) in mice with no NKT cells (mononuclear cells) | IFN-γ production (ELISA, supernatant) (NKT cells) | IL-4 production (ELISA, supernatant) (NKT cells) | cell proliferation (intake of tritium thymidine) (NKT cells) |
| --- | --- | --- | --- | --- | --- | --- |
| CCCCCCCCCCCCCCCCCCCCCCCC(=O)N[C@@H](COC1OC(CO)C(O)C(O)C1O)[C@H](O)[C@H](O)CCCCC (stereo partly drawn) [OCH] | high effectiveness | high effectiveness |  |  |  |  |
| CCCCCCCCCCCCCCCCCCCCCCCCCC(=O)N[C@@H](COC1OC(CO)C(O)C(O)C1O)[C@H](O)[C@H](O)CCCCCCCCCCCCCC (stereo partly drawn) [α-GC, α-galactosyl ceramide] |  |  | not seen | caused | caused | caused |
